From patent US20050112573A1, “Method of detecting toxic substance” (priority 2001, published 2005)

Tested on: yeast genes (level of expressed mRNA)
Assay: DNA chip analysis of expressed mRNA of yeast genes after 2 h culture with a toxic chemical substance
Type: cell-based, Saccharomyces cerevisiae S288C
Procedure: Yeast (Saccharomyces cerevtisiae S288C (α SUC2mal mel gap2 CUP1)) were cultured at 25° C. on YPD medium (yeast extract 1%, polypepton 2%, glucose 2%). One of toxic chemical substances was added to the cell at logarithmic growth phase, and the cell was further cultured for two hours. Cell was cultured without any chemical substance in the same condition, and was used as control. Concentrations of the chemical substances were defined to inhibit the growth of the yeast but not lead to death.
After the completion of cultivation, the culture was centrifuged to collect the cells. To the cells, sodium acetate buffer (50 mM sodium acetate, 10 mM EDTA, 1% SDS) was added, and the mixture was shaken at 65° C. for five minutes, followed by returning to room temperature, and obtaining the supernatant, which procedure was repeated two times. To the supernatant, ½ amount of a solution of phenol/chloroform was added, and the mixture was centrifuged to give a supernatant, which was added with an equal amount of chloroform, and the mixture was centrifuged to give a supernatant. To the supernatant, an equal amount of isopropanol containing 0.3 M sodium acetate was added, and the mixture was allowed to stand at room temperature for 30 minutes, after which the mixture was centrifuged to give a sediment of the whole RNAs. Seventy % ethanol was added to the sediment, and the mixture was again centrifuged to give a sediment, which was then dried and dissolved in water. mRNA was isolated from the whole RNAs as followings. In view of the fact that a poly A chain is attached to the 3′ terminus of mRNA, a polynucleotide having a poly T structure which was immobilized on the surface of latex beads was used to trap the mRNA, and then the mRNA was washed and eluted with spine column (Oligotex-dT30<Super>mRNA Purification Kit, Takara). Reverse transcription of the mRNA was conducted with a reverse transcriptase (Super Script II Reverse Transcriptase; catalogue No. 18064-014, GibcoBRL) using fluorescence-labeled nucleotides to give cDNAs that were introduced with Cy3-dUTP or Cy5-dUTP during the reverse transcription.
The labeled cDNAs were dissolved in TE buffer (10 mM Tris-HCl/1 mM EDTA, pH8.0), and the solution was dropped on the DNA chip containing the whole genes of yeast (DNA Chip Research Inc. Japan) so that the cDNAs were hybridized on the DNA chip at 65° C. for over 12 hours. The fluoresces intensity of the DNA chip was read with a scanner, and the ratio relative to the fluorescence intensity resulting from the absence of chemical substance was estimated as the following, which is shown in Tables 1 to 9: [formula]
In the Tables, “Intensity” indicated in the rightmost column is a value of the level of expressed mRNA of each gene in control cells as divided by the average level of the expressions of the whole genes.

## CdCl2 [(2)]
Yeast gene YFL010C, ratio to control without chemical substance, 2 h culture
  The level of expressed mRNA in the presence of chemical substance/: 4.8
Yeast gene YFL024C, ratio to control without chemical substance, 2 h culture
  The level of expressed mRNA in the presence of chemical substance/: 1.1
Yeast gene YFL028C
  The level of expressed mRNA in the presence of chemical substance/The level of expressed mRNA in the absence of chemical substance: 1.1
Yeast gene YFL032W, ratio to control without chemical substance, 2 h culture
  The level of expressed mRNA in the presence of chemical substance/: 1.5
Yeast gene YFL043C
  The level of expressed mRNA in the presence of chemical substance/The level of expressed mRNA in the absence of chemical substance: 1.2
Yeast gene YGL035C
  The level of expressed mRNA in the presence of chemical substance/in the absence of chemical substance: 1.4
Yeast gene YGL037C, ratio to control without chemical substance, 2 h culture
  The level of expressed mRNA in the presence of chemical substance/: 2.7
Yeast gene YGL047W, ratio to control without chemical substance, 2 h culture
  The level of expressed mRNA in the presence of chemical substance/: 1.9
Yeast gene YGL053W, ratio to control without chemical substance, 2 h culture
  The level of expressed mRNA in the presence of chemical substance/: 1.5
Yeast gene YGL121C, ratio to control without chemical substance, 2 h culture
  The level of expressed mRNA in the presence of chemical substance/: 5.0
Yeast gene YGL158W
  The level of expressed mRNA in the presence of chemical substance/The level of expressed mRNA in the absence of chemical substance: 2.8
Yeast gene YGL199C, ratio to control without chemical substance, 2 h culture
  The level of expressed mRNA in the presence of chemical substance/: 1.7
Yeast gene YGL229C
  The level of expressed mRNA in the presence of chemical substance/The level of expressed mRNA in the absence of chemical substance: 0.7
Yeast gene YGR101W, ratio to control without chemical substance, 2 h culture
  The level of expressed mRNA in the presence of chemical substance/: 1.3
Yeast gene YGR110W, ratio to control without chemical substance, 2 h culture
  The level of expressed mRNA in the presence of chemical substance/: 3.1
Yeast gene YGR130C, ratio to control without chemical substance, 2 h culture
  The level of expressed mRNA in the presence of chemical substance/: 0.7
Yeast gene YGR136W
  The level of expressed mRNA in the presence of chemical substance/The level of expressed mRNA in the absence of chemical substance: 1.2
Yeast gene YGR154C, ratio to control without chemical substance, 2 h culture
  The level of expressed mRNA in the presence of chemical substance/: 2.9
Yeast gene YGR189C
  The level of expressed mRNA in the presence of chemical substance/The level of expressed mRNA in the absence of chemical substance: 0.9
Yeast gene YGR213C
  The level of expressed mRNA in the presence of chemical substance/The level of expressed mRNA in the absence of chemical substance: 2.9
Yeast gene YGR221C, ratio to control without chemical substance, 2 h culture
  The level of expressed mRNA in the presence of chemical substance/: 2.2
Yeast gene YGR257C
  The level of expressed mRNA in the presence of chemical substance/The level of expressed mRNA in the absence of chemical substance: 0.8
Yeast gene YGR287C
  The level of expressed mRNA in the presence of chemical substance/in the absence of chemical substance: 1.0
Yeast gene YHR004C
  The level of expressed mRNA in the presence of chemical substance/The level of expressed mRNA in the absence of chemical substance: 1.1
Yeast gene YHR071W
  The level of expressed mRNA in the presence of chemical substance/The level of expressed mRNA in the absence of chemical substance: 1.1
Yeast gene YHR138C, ratio to control without chemical substance, 2 h culture
  The level of expressed mRNA in the presence of chemical substance/: 1.8
Yeast gene YHR139C
  The level of expressed mRNA in the presence of chemical substance/The level of expressed mRNA in the absence of chemical substance: 4.6
Yeast gene YHR142W
  The level of expressed mRNA in the presence of chemical substance/The level of expressed mRNA in the absence of chemical substance: 0.8
Yeast gene YHR199C, ratio to control without chemical substance, 2 h culture
  The level of expressed mRNA in the presence of chemical substance/: 2.0
Yeast gene YIL023C, ratio to control without chemical
  The level of expressed mRNA in the presence of chemical substance/: 1.2
Yeast gene YIL041W, ratio to control without chemical substance, 2 h culture
  The level of expressed mRNA in the presence of chemical substance/: 1.2
Yeast gene YIL087C, ratio to control without chemical substance, 2 h culture
  The level of expressed mRNA in the presence of chemical substance/: 1.9
Yeast gene YIL123W
  The level of expressed mRNA in the presence of chemical substance/The level of expressed mRNA in the absence of chemical substance: 0.5
Yeast gene YIL140W
  The level of expressed mRNA in the presence of chemical substance/The level of expressed mRNA in the absence of chemical substance: 1.0
Yeast gene YJL057C, ratio to control without chemical substance, 2 h culture
  The level of expressed mRNA in the presence of chemical substance/: 1.2
Yeast gene YJL066C, ratio to control without chemical substance, 2 h culture
  The level of expressed mRNA in the presence of chemical substance/: 1.2
Yeast gene YJL070C
  The level of expressed mRNA in the presence of chemical substance/in the absence of chemical substance: 0.9
Yeast gene YJL073W
  The level of expressed mRNA in the presence of chemical substance/The level of expressed mRNA in the absence of chemical substance: 0.8
Yeast gene YJL082W, ratio to control without chemical substance, 2 h culture
  The level of expressed mRNA in the presence of chemical substance/: 0.8
Yeast gene YJL089W
  The level of expressed mRNA in the presence of chemical substance/The level of expressed mRNA in the absence of chemical substance: 1.5
Yeast gene YJL116C
  The level of expressed mRNA in the presence of chemical substance/The level of expressed mRNA in the absence of chemical substance: 1.8
Yeast gene YJL151C, ratio to control without chemical substance, 2 h culture
  The level of expressed mRNA in the presence of chemical substance/: 2.4
Yeast gene YJL152W, ratio to control without chemical substance, 2 h culture
  The level of expressed mRNA in the presence of chemical substance/: 1.5
Yeast gene YJL161W, ratio to control without chemical substance, 2 h culture
  The level of expressed mRNA in the presence of chemical substance/: 2.2
Yeast gene YJL167W
  The level of expressed mRNA in the presence of chemical substance/in the absence of chemical substance: 1.4
Yeast gene YJL171C, ratio to control without chemical substance, 2 h culture
  The level of expressed mRNA in the presence of chemical substance/: 0.7
Yeast gene YJL216C
  The level of expressed mRNA in the presence of chemical substance/in the absence of chemical substance: 4.7
Yeast gene YJR004C
  The level of expressed mRNA in the presence of chemical substance/The level of expressed mRNA in the absence of chemical substance: 0.8
Yeast gene YJR008W, ratio to control without chemical substance, 2 h culture
  The level of expressed mRNA in the presence of chemical substance/: 1.5
Yeast gene YJR054W, ratio to control without chemical
  The level of expressed mRNA in the presence of chemical substance/: 0.9
Yeast gene YJR086W
  The level of expressed mRNA in the presence of chemical substance/The level of expressed mRNA in the absence of chemical substance: 1.1
Yeast gene YKL008C
  The level of expressed mRNA in the presence of chemical substance/The level of expressed mRNA in the absence of chemical substance: 0.6
Yeast gene YKL013C
  The level of expressed mRNA in the presence of chemical substance/The level of expressed mRNA in the absence of chemical substance: 0.9
Yeast gene YKL039W
  The level of expressed mRNA in the presence of chemical substance/The level of expressed mRNA in the absence of chemical substance: 1.1
Yeast gene YKL041W
  The level of expressed mRNA in the presence of chemical substance/The level of expressed mRNA in the absence of chemical substance: 0.8
Yeast gene YKL071W, ratio to control without chemical substance, 2 h culture
  The level of expressed mRNA in the presence of chemical substance/: 3.8
